Numbers after ± are expanded uncertainties.
Experiment: xn = mol fraction of the nth substance listed
Settings: 101 kPa, Liquid; for viscosity: Concentric cylinders viscometry

C1CCCCC1 [cyclohexane] + Cc1ccccc1
Settings | mass density, 283.15 K [kg/m3] | mass density, 293.15 K [kg/m3] | mass density, 303.15 K [kg/m3] | mass density, 313.15 K [kg/m3] | mass density, 323.15 K [kg/m3] | viscosity, 283.15 K [mPa·s] | viscosity, 293.15 K [mPa·s] | viscosity, 303.15 K [mPa·s] | viscosity, 313.15 K [mPa·s] | viscosity, 323.15 K [mPa·s]
x1 = 0.0958 | 866.15 ± 0.65 | 856.9 ± 0.67 | 847.5 ± 0.69 | 838.15 ± 0.71 | 828.65 ± 0.72 | 0.6712 ± 0.0084 | 0.5995 ± 0.008 | 0.5395 ± 0.0076 | 0.4879 ± 0.0074 | 0.4428 ± 0.0071
x1 = 0.196 | 855.85 ± 0.67 | 846.6 ± 0.69 | 837.2 ± 0.71 | 827.8 ± 0.73 | 818.35 ± 0.75 | 0.6623 ± 0.0083 | 0.5908 ± 0.0079 | 0.5306 ± 0.0076 | 0.4776 ± 0.0073 | 0.431 ± 0.0071
x1 = 0.2986 | 846 ± 0.69 | 836.7 ± 0.71 | 827.3 ± 0.73 | 817.9 ± 0.75 | 808.45 ± 0.77 | 0.6792 ± 0.0084 | 0.6051 ± 0.008 | 0.543 ± 0.0077 | 0.487 ± 0.0074 | 0.4426 ± 0.0071
x1 = 0.3988 | 836.5 ± 0.71 | 827.2 ± 0.73 | 817.8 ± 0.75 | 808.4 ± 0.77 | 798.9 ± 0.78 | 0.6948 ± 0.0085 | 0.6171 ± 0.0081 | 0.5524 ± 0.0077 | 0.4971 ± 0.0074 | 0.4491 ± 0.0072
x1 = 0.4974 | 827.65 ± 0.73 | 818.35 ± 0.75 | 808.9 ± 0.76 | 799.45 ± 0.78 | 789.95 ± 0.8 | 0.7218 ± 0.0087 | 0.6378 ± 0.0082 | 0.5683 ± 0.0078 | 0.5095 ± 0.0075 | 0.4589 ± 0.0072
x1 = 0.5989 | 818.8 ± 0.74 | 809.4 ± 0.76 | 800 ± 0.78 | 790.5 ± 0.8 | 781 ± 0.82 | 0.7635 ± 0.0089 | 0.67 ± 0.0084 | 0.5935 ± 0.008 | 0.5294 ± 0.0076 | 0.4735 ± 0.0073
x1 = 0.6977 | 810.1 ± 0.76 | 800.7 ± 0.78 | 791.3 ± 0.8 | 781.8 ± 0.82 | 772.25 ± 0.84 | 0.8203 ± 0.0092 | 0.7137 ± 0.0086 | 0.6274 ± 0.0081 | 0.5553 ± 0.0077 | 0.4886 ± 0.0074
x1 = 0.7998 | 802.5 ± 0.78 | 793.1 ± 0.8 | 783.65 ± 0.82 | 774.15 ± 0.83 | 764.5 ± 0.85 | 0.9103 ± 0.0098 | 0.7838 ± 0.009 | 0.6824 ± 0.0085 | 0.5987 ± 0.008 | 0.5292 ± 0.0076
x1 = 0.8994 | 794.8 ± 0.79 | 785.5 ± 0.81 | 776.1 ± 0.83 | 766.5 ± 0.85 | 756.9 ± 0.87 | 0.9994 ± 0.01 | 0.8472 ± 0.0094 | 0.7271 ± 0.0087 | 0.6373 ± 0.0082 | 0.5583 ± 0.0078
x1 = 1 | 787.95 ± 0.81 | 778.7 ± 0.83 | 769.2 ± 0.84 | 759.65 ± 0.86 | 749.9 ± 0.88 | 1.18 ± 0.011 | 0.9847 ± 0.01 | 0.8295 ± 0.0093 | 0.7061 ± 0.0086 | 0.5978 ± 0.008
